{
  "source": "patent US8575116B1",
  "about": "“Polyacetylenic compounds for protecting against pancreatic islet atrophy” (Academia Sinica, priority 2010, dated 2013)",
  "key": {"HIT-T15 cells": {"test_system": "HIT-T15 cells", "assay": "Insulin secretion of β-cell line with PMA, GF109203X and cytopiloyne (ELISA)", "type": "cell-based, rat", "settings": "FIG. 6A"}, "[1]": {"test_system": "human insulin promoter in HIT-T15 β-cells", "assay": "Insulin promoter (phINS-Luc) dual luciferase assay in HIT-T15 β-cells", "type": "cell-based, rat", "settings": "FIG. 6C", "description": "FIGS. 4A-C show an increase in insulin mRNA and protein content by cytopiloyne in pancreatic islet cells. (A) HIT-T15 β-cells transfected with phINS-Luc and pRL-TK plasmids were incubated with vehicle (NS), glimepiride (GLM, 10 μM), high glucose (HG, 16.7 mM) or cytopiloyne at 7, 14 or 28 μM. Ten μg of cell lysates from these cells underwent to dual luciferase assays. […] (C) Rat pancreatic islet cells were treated with vehicle, glucose (3.3 mM (LG) or 16.7 mM (HG)) or cytopiloyne (CP, 7, 14 and 28 μM) in the presence of brefeldin A for 24 h. After anti-insulin antibody staining, these cells underwent FACS analysis. The percentage of insulin-positive β-cells is shown. All the results from 3 independent experiments are expressed as mean±SEM, and P<0.05 was considered to be statistically significant (*).\n(A) RIN-M5F cells were grown in medium with 16.7 mM (HG) or 3.3 mM glucose (LG) in the presence of PMA. GF and cytopiloyne. The insulin level of the supernatants was determined using an ELISA kit. (B) RIN-M5F cells were transfected with 5 μg of dominant-negative PKCα or control plasmid grown in medium with 16.7 mM (HG) or 3.3 mM glucose (LG) in the presence of PMA (1 μM), GF109203X (3 μM) or cytopiloyne. The insulin level of the supernatants was determined using an ELISA kit. (C) HIT-T15 cells were transfected with phINS-Luc and pRL-TK plasmids. The cells were grown in medium with 16.7 mM (HG) or 3.3 mM glucose (LG) in the absence or presence of PMA, GF109203X and cytopiloyne. The cell lysates were subjected to dual luciferase assays. (D) HIT-T15 cells were transfected with vehicle or dominant-negative PKCα plasmid together with phINS-Luc and pRL-TK plasmids. The cells were grown in medium with 16.7 mM (HG) or 3.3 mM glucose (LG) in the absence or presence of PMA and cytopiloyne. The cell lysates were subjected to dual luciferase assays.\nPlasmids phINS-Luc and pRL-TK contain a human insulin promoter (2347 bp) from phINS-DCR3 vector linked to a firefly luciferase gene and the thymidine kinase promoter linked to Renilla luciferase reporter gene, respectively. Dominant-negative PKCα, phINS-Luc and/or pRL-TK were transfected into HIT-T15 cells with lipofectamine or electroporation."}, "STZ-treated C57BL mice [2]": {"test_system": "STZ-treated C57BL mice", "assay": "Blood glucose in STZ-treated (β-cell-depleted) C57BL mice", "type": "in vivo, mouse", "settings": "cytopiloyne oral 0.1, 0.5 and 2.5 mgkg^−1; insulin i.p. 2.5 IUkg^−1", "description": "FIGS. 3A-C show cytopiloyne-mediated insulin release depends on pancreatic islet cells. (A) Rat pancreatic islet cells were incubated with glucose-free KRB buffer containing vehicle or cytopiloyne at 1.5, 3, 7, 14, 28 and 42 μM (FIG. 3A-i). Similarly, rat pancreatic islet cells were incubated with KRB buffer containing vehicle, glimepiride (GLM, 10 μM) or cytopiloyne at 1.5, 3, 7, 14, 28 and 42 μM in the presence of 3.3 mM glucose (LG, FIG. 3A-ii) or 16.7 mM glucose (HG, FIG. 3A-iii). The insulin levels were determined using an insulin ELISA kit. The data presented as mean±SEM of 3 independent experiments. (B) Fed C57BL mice, which had already received an injection of STZ, were administered with an oral dose of vehicle, cytopiloyne (CP, 0.1, 0.5 and 2.5 mgkg^−1), and an intraperitoneal injection of insulin (Ins, 2.5 IUkg^−1). Blood sugar levels in the STZ-treated mice were determined using a glucometer. […] Blood sugar levels in the STZ-treated mice were determined using a glucometer. All the results from 3 independent experiments are expressed as mean±SEM, and P<0.05 was considered to be statistically significant (*). […]\nTo deplete pancreatic β-cells in mice, 6-week-old C57BL females (NLAC, Taipei, Taiwan) were intraperitoneally injected with STZ at 200 mgkg^−1. […] Blood glucose levels were monitored for 4 h. […] Blood glucose levels in the mice were monitored from 0 to 4 h after insulin injection."}, "STZ-treated C57BL mice [3]": {"test_system": "STZ-treated C57BL mice", "assay": "Insulin sensitizer test: oral dose before insulin injection in STZ-treated C57BL mice", "type": "in vivo, mouse", "settings": "cytopiloyne 0.5 and 2.5, glimepiride 2.5, metformin 60 mgkg^−1 oral; insulin 2.5 IUkg^−1", "description": "FIGS. 3A-C show cytopiloyne-mediated insulin release depends on pancreatic islet cells. (A) Rat pancreatic islet cells were incubated with glucose-free KRB buffer containing vehicle or cytopiloyne at 1.5, 3, 7, 14, 28 and 42 μM (FIG. 3A-i). Similarly, rat pancreatic islet cells were incubated with KRB buffer containing vehicle, glimepiride (GLM, 10 μM) or cytopiloyne at 1.5, 3, 7, 14, 28 and 42 μM in the presence of 3.3 mM glucose (LG, FIG. 3A-ii) or 16.7 mM glucose (HG, FIG. 3A-iii). The insulin levels were determined using an insulin ELISA kit. The data presented as mean±SEM of 3 independent experiments. (B) Fed C57BL mice, which had already received an injection of STZ, were administered with an oral dose of vehicle, cytopiloyne (CP, 0.1, 0.5 and 2.5 mgkg^−1), and an intraperitoneal injection of insulin (Ins, 2.5 IUkg^−1). Blood sugar levels in the STZ-treated mice were determined using a glucometer. (C) C57BL mice, which had already received STZ, were orally administered with a single dose of vehicle, cytopiloyne (CP, 0.5 and 2.5 mgkg^−1), glimepiride (GLM, 2.5 mgkg^−1), or metformin (60 mgkg^−1), followed by an intraperitoneal injection with insulin (Ins). Blood sugar levels in the STZ-treated mice were determined using a glucometer. All the results from 3 independent experiments are expressed as mean±SEM, and P<0.05 was considered to be statistically significant (*). The number of mice (n) is indicated in parentheses.\nTo deplete pancreatic β-cells in mice, 6-week-old C57BL females (NLAC, Taipei, Taiwan) were intraperitoneally injected with STZ at 200 mgkg^−1. STZ-treated females with postprandial blood sugar over 500 mgdl^−1 were grouped. […] Blood glucose levels were monitored for 4 h. To distinguish sensitizer activity from releaser activity of cytopiloyne, STZ-treated C57BL mice were tube-fed with vehicle, glimepiride (2.5 mgkg^−1), metformin (60 mgkg^−1) or cytopiloyne (0.5 and 2.5 mgkg^−1) 1 h before insulin injection (2.5 IUkg^−1). Blood glucose levels in the mice were monitored from 0 to 4 h after insulin injection."}, "β-cell line": {"test_system": "β-cell line", "assay": "Insulin secretion in β-cell line (unpublished data)", "type": "cell-based"}, "adiponectin": {"test_system": "adiponectin", "assay": "Real-time RT-PCR of adiponectin mRNA relative to GAPDH in 3T3-L1 cells", "type": "cell-based, mouse", "settings": "mouse, 8 days, 1 μM"}, "[4]": {"test_system": "adipocyte protein 2 (aP2)", "assay": "Real-time RT-PCR of aP2 mRNA relative to GAPDH in 3T3-L1 cells", "type": "cell-based, mouse", "settings": "mouse, 8 days, 1 μM"}, "PKCα": {"test_system": "PKCα", "assay": "PKCα translocation and phosphorylation (Western blot) in RIN-m5F cells", "type": "cell-based, rat", "settings": "PMA 1 μM, glucose 16.7 mM", "description": "(§1) FIGS. 5A-D show the effects of cytopiloyne on calcium mobilization, DAG generation and PKCa activation. (A) After Fura 2-AM loading, RIN-m5F cells were stimulated with 16.7 mM glucose (HG) and cytopiloyne at 7, 14 and 28 μM. Level of intracellular calcium, as shown by the 340/380 nm ratio, was detected using a fluorescence spectrophotometer. (B) RIN-m5F cells were pulsed with ^3H-myristic acid (5 Cim1^−1) for 16 hours. After washing, the cells were stimulated with glucose, cytopiloyne, PMA and glimepiride. Total lipids were separated on a silica thin layer plate. DAG and cholesterol were visualized with iodine vapor and identified by their standards. (C) RIN-m5F cells were incubated with vehicle (Mock), cytopiloyne (CP, 3, 7 and 14 μM), PMA (1 μM) and 16.7 mM (HG). Membrane or cytosolic proteins were subjected to Western blot with anti-PKCα and anti-Actin antibodies. (D) RIN-m5F cells were incubated with vehicle (Mock), cytopiloyne (CP 7 μM) and PMA (1 μM). After lysis, total lystaes were subjected to Western blot with anti-PKCα, anti-phospho-PKCα and anti-Actin antibodies."}, "RIN-m5F cells": {"test_system": "RIN-m5F cells", "assay": "DAG and cholesterol generation (3H-myristic acid, TLC) in RIN-m5F cells", "type": "cell-based, rat", "settings": "versus vehicle control, glucose 16.7 mM", "description": "as §1\nRIN-m5F cells were incubated with ^3H-myristic acid ([…]) for 16 hours. After washing, the cells were treated with glucose, cytopiloyne, PMA and glimepiride. Total lipids were extracted as previously described. Radioactive DAG was separated on a silica thin layer plate with the first developer of ethylacetate: acetic acid: triethylpentane (9:2:5) and the second developer of hexane: diethylether: methanol: acetic acid (90:20:3:2). The spot of DAG was visualized with iodine vapor and identified by DAG standard."}},
  "data": [
    {"molecule": "CN(C)CCCn1cc(C2=C(c3c[nH]c4ccccc34)C(=O)NC2=O)c2ccccc21", "note": "[GF109203X]", "values": [
      {"measurement": "effect of PKC inhibitor on induced insulin secretion", "setting": "HIT-T15 cells; with cytopiloyne or PMA", "result": "inhibited cytopiloyne- and PMA-induced insulin secretion"},
      {"measurement": "effect of PKC inhibitor on mediated insulin transcription", "setting": "[1]; with cytopiloyne, glucose or PMA", "result": "completely abolished cytopiloyne-, glucose- and PMA-mediated insulin transcription"}
    ]},
    {"molecule": "insulin: Insulin purchased from Novo Nordisk, injected intraperitoneally", "values": [
      {"measurement": "reduction of hyperglycemia / blood glucose in β-cell-depleted mice", "setting": "STZ-treated C57BL mice [2]", "result": "still diminished blood glucose levels"}
    ]},
    {"molecule": "CN(C)C(=N)N=C(N)N", "note": "[metformin]", "values": [
      {"measurement": "blood sugar lowering when dosed 60 min before insulin injection", "setting": "STZ-treated C57BL mice [3]", "result": "significantly reduced blood glucose levels"}
    ]},
    {"molecule": "cytopiloyne aglycone", "values": [
      {"measurement": "induction of insulin secretion relative to cytopiloyne", "setting": "β-cell line", "result": "less effective than cytopiloyne in inducing insulin secretion"},
      {"measurement": "insulin secretion in β-cell line", "setting": "β-cell line", "result": "did stimulate insulin secretion in β-cell line to some extent"}
    ]},
    {"molecule": "CN(CCOc1ccc(CC2SC(=O)NC2=O)cc1)c1ccccn1", "note": "(stereo not shown) [rosiglitazone]", "values": [
      {"measurement": "adiponectin expression level, times control levels", "setting": "adiponectin", "result": 21, "unit": "times"},
      {"measurement": "aP2 expression, times of the control", "setting": "[4]", "result": 11, "unit": "times"}
    ]},
    {"molecule": "CCCCCCCCCCCCCC(=O)O[C@@H]1[C@@H](C)[C@@]2(O)[C@@H](C=C(CO)C[C@]3(O)C(=O)C(C)=C[C@@H]23)[C@@H]2C(C)(C)[C@]12OC(C)=O", "note": "[PMA, phorbol 12-myristate 13-acetate, reference compound]", "values": [
      {"measurement": "phosphorylation of PKCα", "setting": "PKCα; cytopiloyne 7 μM", "result": "increased phosphorylation of PKCα"},
      {"measurement": "translocation of PKCα from cytoplasm to membrane", "setting": "PKCα; cytopiloyne 3, 7 and 14 μM", "result": "increased the translocation of PKCα from cytoplasm to membrane"},
      {"measurement": "insulin secretion in β-cell line", "setting": "HIT-T15 cells; glucose 16.7 mM", "result": "stimulated insulin secretion"},
      {"measurement": "insulin transcription in HIT-T15 cells", "setting": "[1]; glucose 16.7 mM", "result": "stimulated insulin transcription"},
      {"measurement": "level of DAG", "setting": "RIN-m5F cells", "result": "significantly increased the level of DAG"}
    ]}
  ]
}
